What was measured:
PC3 = test: cells; format: cell-based; details: Homo sapiens, PC-3, read-out: IC50 (in vitro toxicity)
hLAT2 = target: T1, hLAT2 (Homo sapiens, UniProt Q9UHI5); test: LAT2 uptake inhibition assay, radiolabeled competition uptake with [3H]-leucine; format: cell-based
T1 construct: expressed in transfected cells; host or cells: KB or LLCPK cells, tetracycline/doxycycline-inducible
T1 sequence (Q9UHI5 1-535): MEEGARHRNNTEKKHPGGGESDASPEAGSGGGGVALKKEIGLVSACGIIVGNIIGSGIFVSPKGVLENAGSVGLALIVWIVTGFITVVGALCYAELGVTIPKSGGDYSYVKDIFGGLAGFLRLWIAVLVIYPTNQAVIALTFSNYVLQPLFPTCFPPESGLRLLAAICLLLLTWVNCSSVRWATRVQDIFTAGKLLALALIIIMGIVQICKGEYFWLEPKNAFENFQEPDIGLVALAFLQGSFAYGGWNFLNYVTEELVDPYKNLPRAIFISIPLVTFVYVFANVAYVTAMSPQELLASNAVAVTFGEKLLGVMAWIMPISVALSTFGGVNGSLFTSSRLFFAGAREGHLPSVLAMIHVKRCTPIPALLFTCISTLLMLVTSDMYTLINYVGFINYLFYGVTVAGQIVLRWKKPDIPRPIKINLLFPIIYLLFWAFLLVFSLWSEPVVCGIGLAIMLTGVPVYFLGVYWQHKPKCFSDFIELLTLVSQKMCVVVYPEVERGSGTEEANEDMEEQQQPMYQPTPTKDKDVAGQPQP
T1 sequence (P08195 1-630 isoform P08195-1 partner): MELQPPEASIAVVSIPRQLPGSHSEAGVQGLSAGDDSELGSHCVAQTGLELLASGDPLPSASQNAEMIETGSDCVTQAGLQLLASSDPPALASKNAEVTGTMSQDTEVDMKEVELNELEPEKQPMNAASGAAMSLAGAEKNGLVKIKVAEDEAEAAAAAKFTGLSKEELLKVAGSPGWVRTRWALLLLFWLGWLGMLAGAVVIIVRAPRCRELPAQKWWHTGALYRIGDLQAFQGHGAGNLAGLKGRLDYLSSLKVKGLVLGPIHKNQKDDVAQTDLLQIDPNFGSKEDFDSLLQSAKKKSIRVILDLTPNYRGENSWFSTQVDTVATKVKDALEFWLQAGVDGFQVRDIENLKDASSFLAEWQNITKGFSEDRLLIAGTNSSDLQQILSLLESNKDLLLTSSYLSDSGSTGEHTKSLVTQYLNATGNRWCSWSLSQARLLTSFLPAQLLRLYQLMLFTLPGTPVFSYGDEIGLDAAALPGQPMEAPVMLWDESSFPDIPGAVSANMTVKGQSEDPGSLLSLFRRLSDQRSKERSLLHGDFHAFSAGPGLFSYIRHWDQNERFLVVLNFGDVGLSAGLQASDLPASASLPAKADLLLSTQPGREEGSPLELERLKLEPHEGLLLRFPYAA

hLAT1 = target: T2, hLAT1 (Homo sapiens, UniProt Q01650); test: LAT1 uptake inhibition assay, radiolabeled competition uptake with [3H]-Gabapentin; format: cell-based
T2 construct: expressed in transfected cells; host or cells: LLCPK cells, tetracycline/doxycycline-inducible, boosted with sodium butyrate
T2 sequence (Q01650 whole entry, one chain of several): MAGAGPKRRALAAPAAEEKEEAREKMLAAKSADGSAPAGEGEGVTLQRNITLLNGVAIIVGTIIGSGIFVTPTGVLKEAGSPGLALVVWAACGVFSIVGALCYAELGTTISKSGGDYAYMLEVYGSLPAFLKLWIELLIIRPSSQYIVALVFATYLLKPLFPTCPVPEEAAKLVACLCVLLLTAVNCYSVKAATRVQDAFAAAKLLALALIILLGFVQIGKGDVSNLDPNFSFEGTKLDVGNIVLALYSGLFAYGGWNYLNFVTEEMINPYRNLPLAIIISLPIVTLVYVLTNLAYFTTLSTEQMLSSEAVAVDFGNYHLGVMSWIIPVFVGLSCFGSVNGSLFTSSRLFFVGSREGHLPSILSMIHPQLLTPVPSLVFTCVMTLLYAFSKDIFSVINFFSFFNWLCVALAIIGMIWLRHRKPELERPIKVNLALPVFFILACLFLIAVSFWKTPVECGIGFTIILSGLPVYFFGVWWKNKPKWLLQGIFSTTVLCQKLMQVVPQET

KMS11 = test: cells; format: cell-based; details: Homo sapiens, KMS-11, read-out: IC50 (in vitro toxicity)
[1] = system: LLCPK cells conditionally expressing hLAT1; test: cells; details: 0.5 h, read-out: LC50, concentration of test compound at which the percent surviving cells was 50%
MDA-MB-231 [2] = test: Triple negative breast cancer study, IV dosing; format: in vivo, mouse; details: IV once a week for 8 weeks
Description: The efficacy of compounds provided by the present disclosure was evaluated on a triple negative breast cancer xenograft model—MDA-MB-231. Human triple negative breast cancer cells were implanted into the flank of nude mice and the study was initiated after the volume of the tumors was 150 mm^3. The animals were IV dosed once a week for 8 weeks with either vehicle or 5 mg/kg of compound (5), or 20 mg/kg compound (7). The tumor volume, body weight, white blood cell count, and granulocyte count were determined during the study and 12 days after the final dose was administered.

MDA-MB-231 [3] = test: cells; format: cell-based; details: Homo sapiens, MDA-MB-231, read-out: IC50 (in vitro toxicity)
LN229 = test: cells; format: cell-based; details: Homo sapiens, LN-229, read-out: IC50 (in vitro toxicity)
D283 = test: cells; format: cell-based; details: D283, read-out: IC50 (in vitro toxicity)
HS5 = test: cells; format: cell-based; details: HS5, read-out: IC50 (in vitro toxicity)
Raji = test: cells; format: cell-based; details: Homo sapiens, read-out: IC50 (in vitro toxicity)
U266 = test: cells; format: cell-based; details: Homo sapiens, U-266, read-out: IC50 (in vitro toxicity)
L363 = test: cells; format: cell-based; details: Homo sapiens, L-363, read-out: IC50 (in vitro toxicity)
794 = test: cells; format: cell-based; details: read-out: IC50 (in vitro toxicity)
KMS34 = test: cells; format: cell-based; details: KMS-34, read-out: IC50 (in vitro toxicity)
MV411 = test: cells; format: cell-based; details: Homo sapiens, MV4-11, read-out: IC50 (in vitro toxicity)
42MGBA = test: cells; format: cell-based; details: read-out: IC50 (in vitro toxicity)
AMO1 = test: cells; format: cell-based; details: Homo sapiens, AMO1, read-out: IC50 (in vitro toxicity)
RPMI8266 = test: cells; format: cell-based; details: RPMI8266, read-out: IC50 (in vitro toxicity)
[4] = system: Human prostate cancer PC3 cells; details: mouse, in vivo
DBRTG = test: cells; format: cell-based; details: read-out: IC50 (in vitro toxicity)
U251 = test: cells; format: cell-based; details: Homo sapiens, U-251, read-out: IC50 (in vitro toxicity)
MM1.S = test: cells; format: cell-based; details: Homo sapiens, read-out: IC50 (in vitro toxicity)
HS27A = test: cells; format: cell-based; details: HS-27A, read-out: IC50 (in vitro toxicity)
G55 = test: cells; format: cell-based; details: read-out: IC50 (in vitro toxicity)
HCT116 = test: In vitro cytotoxicity, HCT116; format: cell-based; details: Homo sapiens, HCT-116, read-out: IC50 (in vitro toxicity)
MCF7 = test: In vitro cytotoxicity, MCF7; format: cell-based; details: Homo sapiens, MCF7, read-out: IC50 (in vitro toxicity)
[5] = system: LLCPK cells conditionally expressing hLAT1
[6] = system: human bone marrow cells (erythroid and myeloid progenitors); test: In vitro bone marrow toxicity, colony forming cell assays; details: 14 days in culture, methylcellulose media
B16 melanoma cells = test: In vivo tumor growth suppression, B16 efficacy model; parameters: species or system mouse; details: C57BL/6 mice, IP daily for 12 days; test compound 5 mg/kg and 10 mg/kg, melphalan 2.5 mg/kg

Row | SMILES | IC50 (PC3) [µM] | IC50 (hLAT2) [µM] | IC50 (KMS11) [µM] | CC50 [1] [nM] | IC50 (MDA-MB-231 [3]) [µM] | IC50 (LN229) [µM] | IC50 (D283) [µM] | IC50 (HS5) [µM] | IC50 (Raji) [µM] | IC50 (U266) [µM] | IC50 (L363) [µM] | IC50 794 [µM] | IC50 (KMS34) [µM] | IC50 (MV411) [µM] | IC50 (42MGBA) [µM] | IC50 (AMO1) [µM] | IC50 (RPMI8266) [µM] | body weight [4] | myelosuppression [4] | tumor growth suppression [4] | further results
1 | COc1ccc(N(CCCl)CCCl)cc1C[C@H](N)CC(=O)O [Compound 7, (3S)-3-Amino-4-[5-[bis(2-chloroethyl)amino]-2-methoxy-phenyl]butanoic Acid] | < 100 | < 100 | > 100 | < 1000 | < 100 | < 100 | < 100 | > 100 | < 100 | < 100 | > 100 | < 100 | > 100 | < 100 | < 100 | > 100 | > 100 | maintained weight | not dectected | dose-dependent tumor growth suppression | IC50 (hLAT1): < 100 µM; body weight (MDA-MB-231 [2]): maintained weight; myelosuppression (MDA-MB-231 [2]): not dectected; tumor growth suppression (MDA-MB-231 [2]; nude mice, 5 mg/kg compound (5), 20 mg/kg compound (7)): dose-dependent tumor growth suppression; IC50 (DBRTG): < 100 µM; IC50 (U251): < 100 µM; IC50 (MM1.S): < 100 µM; IC50 (HS27A): > 100 µM; IC50 (G55): < 100 µM
2 | COc1ccc(N(CCCl)CCCl)c(C[C@H](N)CC(=O)O)c1 [Compound 51, (3S)-3-amino-4-[2-[bis(2-chloroethyl)amino]-5-methoxy-phenyl]butanoic acid] | < 100 | < 100 | > 100 | < 1000 | < 100 | < 100 | < 100 | > 100 | < 100 | < 100 | < 100 | < 100 | < 100 | < 100 | < 100 | > 100 | > 100 | maintained weight | not dectected | dose-dependent tumor growth suppression | IC50 (HCT116): < 100 µM; IC50 (MCF7): < 100 µM; IC50 (DBRTG): < 100 µM; IC50 (U251): < 100 µM; IC50 (MM1.S): < 100 µM; IC50 (HS27A): > 100 µM; IC50 (G55): < 100 µM
3 | N[C@@H](Cc1ccc(N(CCCl)CCCl)cc1)C(=O)O [melphalan, reference compound] | – | – | – | – | – | – | – | – | – | – | – | – | – | – | – | – | – | – | – | – | percent surviving cells in cells expressing LAT1 versus cells not expressing LAT1 (in words) [5]: about the same; toxicity to bone marrow progenitor cells (BFU-E, CFU-GM, Total CFC) [6]: more toxic to bone marrow progenitor cells than compound (5); Tumor Growth (% Control), 5 days post-dosing (B16 melanoma cells): 56 % Control; Tumor Growth (% Control), End of dosing (B16 melanoma cells): 33 % Control
